Test results reported in patent publication US9266878B2, “Phosphatidylinositol 3-kinase inhibitors” (Gilead Calistoga LLC, priority 2012, dated 2016).

Key:
Experiment in all cases: Enzymatic activity of PI3K isoforms, TR-FRET assay (PIP3 formation)
Type in all cases: biochemical
[1] = molecular target: PI3Kα (Homo sapiens (Human), UniProt P42336); conditions: bound given in uM
Experimental: (§1) Enzymatic activity of the class I PI3K isoforms was measured using a time-resolved fluorescence resonance energy transfer (TR-FRET) assay that monitors formation of the product 3,4,5-inositol triphosphate molecule (PIP3), as it competes with fluorescently labeled PIP3 for binding to the GRP-1 pleckstrin homology domain protein. An increase in […] product results in a decrease in TR-FRET signal as the labeled fluorophore is displaced from the GRP-1 protein binding site.
(§2) Class I PI3K isoforms were expressed and purified as heterodimeric recombinant proteins. All assay reagents and buffers for the TR-FRET assay were purchased from Millipore. […] After an assay reaction time of 30 minutes at 25° C., reactions were terminated with a final concentration of 10 mM EDTA, 10 nM labeled-PIP3, and 35 nM Europium labeled GRP-1 detector protein before reading TR-FRET on an Envision plate reader (Ex: 340 nm; Em: 615/665 nm; 100 μs delay and 500 μs read window).
(§3) IC50 are reported in units of nM. These assays generally produced results within 3-fold of the reported mean.

[2] = molecular target: PI3Kδ (Homo sapiens (Human), UniProt O00329); conditions: bound given in nM
Experimental: as §1, §2, §3

[3] = molecular target: PI3Kγ (Homo sapiens (Human), UniProt P48736)
Experimental: as §1
Class I PI3K isoforms were expressed and purified as heterodimeric recombinant proteins. All assay reagents and buffers for the TR-FRET assay were purchased from Millipore.
IC50 are reported in units of nM.

Chain of PI3Kδ (O00329 whole entry): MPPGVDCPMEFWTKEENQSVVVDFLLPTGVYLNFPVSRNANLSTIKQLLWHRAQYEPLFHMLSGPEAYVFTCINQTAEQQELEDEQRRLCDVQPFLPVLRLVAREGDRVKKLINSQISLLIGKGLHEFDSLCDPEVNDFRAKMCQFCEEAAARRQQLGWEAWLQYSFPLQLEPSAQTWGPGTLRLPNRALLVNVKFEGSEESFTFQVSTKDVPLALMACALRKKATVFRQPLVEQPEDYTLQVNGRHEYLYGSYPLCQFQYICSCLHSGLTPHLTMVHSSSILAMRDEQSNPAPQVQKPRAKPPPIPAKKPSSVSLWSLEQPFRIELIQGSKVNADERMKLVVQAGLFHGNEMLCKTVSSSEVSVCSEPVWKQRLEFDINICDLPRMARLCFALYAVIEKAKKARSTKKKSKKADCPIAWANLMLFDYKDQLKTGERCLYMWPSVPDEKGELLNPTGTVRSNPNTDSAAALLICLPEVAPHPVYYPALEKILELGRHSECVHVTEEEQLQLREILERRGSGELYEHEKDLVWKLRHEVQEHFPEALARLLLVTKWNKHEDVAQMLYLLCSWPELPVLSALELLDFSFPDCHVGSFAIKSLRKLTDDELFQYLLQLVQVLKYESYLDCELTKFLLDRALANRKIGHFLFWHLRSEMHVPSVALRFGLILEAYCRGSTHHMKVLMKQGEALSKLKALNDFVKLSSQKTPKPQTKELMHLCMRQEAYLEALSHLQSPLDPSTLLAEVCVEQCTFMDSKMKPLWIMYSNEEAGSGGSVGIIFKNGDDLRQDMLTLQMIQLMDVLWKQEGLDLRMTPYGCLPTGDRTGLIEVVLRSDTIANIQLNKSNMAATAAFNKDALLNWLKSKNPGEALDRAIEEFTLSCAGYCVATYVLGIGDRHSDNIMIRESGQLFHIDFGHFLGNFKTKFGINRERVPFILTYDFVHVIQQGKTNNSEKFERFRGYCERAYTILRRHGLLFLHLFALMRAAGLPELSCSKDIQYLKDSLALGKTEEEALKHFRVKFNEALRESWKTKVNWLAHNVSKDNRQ
Chain of PI3Kδ (P27986 whole entry partner): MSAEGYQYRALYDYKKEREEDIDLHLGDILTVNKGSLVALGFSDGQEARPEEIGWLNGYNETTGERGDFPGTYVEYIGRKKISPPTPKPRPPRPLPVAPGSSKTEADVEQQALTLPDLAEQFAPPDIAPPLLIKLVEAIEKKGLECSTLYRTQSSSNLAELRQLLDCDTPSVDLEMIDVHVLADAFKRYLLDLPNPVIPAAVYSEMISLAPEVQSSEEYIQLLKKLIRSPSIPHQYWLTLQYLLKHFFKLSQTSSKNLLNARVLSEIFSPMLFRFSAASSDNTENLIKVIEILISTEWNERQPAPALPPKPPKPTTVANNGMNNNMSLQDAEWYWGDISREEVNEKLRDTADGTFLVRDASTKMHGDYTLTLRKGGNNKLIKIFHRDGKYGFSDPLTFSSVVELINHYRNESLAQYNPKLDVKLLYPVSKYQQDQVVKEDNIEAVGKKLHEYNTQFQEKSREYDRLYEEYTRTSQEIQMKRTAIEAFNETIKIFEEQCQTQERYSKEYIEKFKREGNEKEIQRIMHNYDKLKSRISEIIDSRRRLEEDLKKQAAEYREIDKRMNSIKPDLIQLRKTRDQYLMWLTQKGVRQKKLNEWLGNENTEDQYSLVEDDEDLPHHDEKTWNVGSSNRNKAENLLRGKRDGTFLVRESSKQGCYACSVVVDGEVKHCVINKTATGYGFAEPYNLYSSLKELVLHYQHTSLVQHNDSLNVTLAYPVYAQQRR
Chain of PI3Kα (P42336 whole entry, the tested form may be a part, canonical isoform): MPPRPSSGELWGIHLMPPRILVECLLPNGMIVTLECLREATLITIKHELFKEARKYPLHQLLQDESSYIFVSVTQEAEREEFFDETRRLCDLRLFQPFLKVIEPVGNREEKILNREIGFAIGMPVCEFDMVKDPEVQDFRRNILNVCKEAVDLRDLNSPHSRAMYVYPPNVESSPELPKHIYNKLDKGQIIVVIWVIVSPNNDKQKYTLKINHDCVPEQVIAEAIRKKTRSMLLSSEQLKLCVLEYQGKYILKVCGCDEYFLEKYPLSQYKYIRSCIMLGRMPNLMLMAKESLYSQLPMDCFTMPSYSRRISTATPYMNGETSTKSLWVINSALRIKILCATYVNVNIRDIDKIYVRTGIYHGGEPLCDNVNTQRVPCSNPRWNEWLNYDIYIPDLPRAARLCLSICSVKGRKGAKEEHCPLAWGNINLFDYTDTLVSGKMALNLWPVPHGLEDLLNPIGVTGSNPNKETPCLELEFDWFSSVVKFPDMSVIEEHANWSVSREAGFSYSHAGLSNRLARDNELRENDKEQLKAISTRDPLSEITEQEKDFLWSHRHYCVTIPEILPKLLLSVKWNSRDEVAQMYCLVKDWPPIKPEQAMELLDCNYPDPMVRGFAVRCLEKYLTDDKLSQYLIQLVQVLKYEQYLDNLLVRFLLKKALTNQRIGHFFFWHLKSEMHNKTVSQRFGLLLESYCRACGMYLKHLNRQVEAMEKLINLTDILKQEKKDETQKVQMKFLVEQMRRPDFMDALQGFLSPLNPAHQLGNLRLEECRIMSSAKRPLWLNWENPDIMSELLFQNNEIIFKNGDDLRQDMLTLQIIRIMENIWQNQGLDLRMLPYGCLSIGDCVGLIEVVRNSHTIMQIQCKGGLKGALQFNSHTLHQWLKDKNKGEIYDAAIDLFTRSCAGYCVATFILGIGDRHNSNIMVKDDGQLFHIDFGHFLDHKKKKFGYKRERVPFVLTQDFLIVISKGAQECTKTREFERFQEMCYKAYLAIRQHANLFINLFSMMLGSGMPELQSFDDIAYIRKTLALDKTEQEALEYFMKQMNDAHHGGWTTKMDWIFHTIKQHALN
Chain of PI3Kα (P27986 whole entry partner, the tested form may be a part, canonical isoform): as the sequence (P27986 whole entry partner) above
Chain of PI3Kγ (P48736 whole entry): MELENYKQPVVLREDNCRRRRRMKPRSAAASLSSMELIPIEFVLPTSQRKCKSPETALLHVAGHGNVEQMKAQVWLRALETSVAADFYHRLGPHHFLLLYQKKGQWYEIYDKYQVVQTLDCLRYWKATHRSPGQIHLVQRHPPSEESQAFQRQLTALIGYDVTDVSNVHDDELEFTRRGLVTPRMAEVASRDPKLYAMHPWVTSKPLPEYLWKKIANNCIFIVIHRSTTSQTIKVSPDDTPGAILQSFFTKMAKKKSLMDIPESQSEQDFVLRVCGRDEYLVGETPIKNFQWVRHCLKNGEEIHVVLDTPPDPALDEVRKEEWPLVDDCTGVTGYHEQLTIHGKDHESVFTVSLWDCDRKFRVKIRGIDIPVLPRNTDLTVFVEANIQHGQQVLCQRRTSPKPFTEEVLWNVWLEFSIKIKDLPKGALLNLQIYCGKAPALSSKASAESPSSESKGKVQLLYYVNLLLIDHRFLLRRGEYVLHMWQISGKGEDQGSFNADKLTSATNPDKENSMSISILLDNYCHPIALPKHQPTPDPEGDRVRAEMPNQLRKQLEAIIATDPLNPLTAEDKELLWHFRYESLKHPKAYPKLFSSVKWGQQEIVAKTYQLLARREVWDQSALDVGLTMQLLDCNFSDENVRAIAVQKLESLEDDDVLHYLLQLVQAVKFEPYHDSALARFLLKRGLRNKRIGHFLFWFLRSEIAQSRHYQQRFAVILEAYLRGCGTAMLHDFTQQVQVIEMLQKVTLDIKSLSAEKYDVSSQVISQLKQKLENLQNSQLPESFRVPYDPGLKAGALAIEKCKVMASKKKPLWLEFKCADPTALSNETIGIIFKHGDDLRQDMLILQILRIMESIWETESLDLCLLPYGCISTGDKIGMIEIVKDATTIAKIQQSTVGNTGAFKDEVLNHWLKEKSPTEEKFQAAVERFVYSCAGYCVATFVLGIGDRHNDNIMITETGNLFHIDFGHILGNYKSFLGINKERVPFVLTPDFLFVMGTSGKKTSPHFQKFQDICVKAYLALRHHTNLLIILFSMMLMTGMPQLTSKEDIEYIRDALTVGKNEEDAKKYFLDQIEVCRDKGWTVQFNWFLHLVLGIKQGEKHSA
Chain of PI3Kγ (Q8WYR1 whole entry partner): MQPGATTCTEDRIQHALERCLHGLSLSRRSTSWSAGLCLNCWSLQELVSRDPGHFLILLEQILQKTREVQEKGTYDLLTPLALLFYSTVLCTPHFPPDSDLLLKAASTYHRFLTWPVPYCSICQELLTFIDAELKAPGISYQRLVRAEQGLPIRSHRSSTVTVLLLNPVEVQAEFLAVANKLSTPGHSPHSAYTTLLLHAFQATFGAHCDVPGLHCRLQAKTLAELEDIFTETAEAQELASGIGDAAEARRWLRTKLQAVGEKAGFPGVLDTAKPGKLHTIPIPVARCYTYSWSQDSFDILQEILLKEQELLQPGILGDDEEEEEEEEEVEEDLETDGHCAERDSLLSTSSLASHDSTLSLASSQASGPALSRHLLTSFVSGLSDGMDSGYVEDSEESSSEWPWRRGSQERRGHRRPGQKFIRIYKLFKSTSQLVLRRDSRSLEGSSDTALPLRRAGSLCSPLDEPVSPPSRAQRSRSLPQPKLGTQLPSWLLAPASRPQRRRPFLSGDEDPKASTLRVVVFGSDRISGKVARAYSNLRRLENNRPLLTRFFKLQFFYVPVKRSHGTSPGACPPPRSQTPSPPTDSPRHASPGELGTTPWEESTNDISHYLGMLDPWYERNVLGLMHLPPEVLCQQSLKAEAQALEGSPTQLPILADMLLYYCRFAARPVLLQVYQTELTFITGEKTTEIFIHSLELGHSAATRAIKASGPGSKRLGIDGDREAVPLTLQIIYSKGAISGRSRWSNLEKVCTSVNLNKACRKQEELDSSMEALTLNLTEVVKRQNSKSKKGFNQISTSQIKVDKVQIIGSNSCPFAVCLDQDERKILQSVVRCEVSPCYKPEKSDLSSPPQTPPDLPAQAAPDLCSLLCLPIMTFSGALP

| SMILES | IC50 [1] [µM] | IC50 [2] [nM] | IC50 ([3]; bound given in uM) [µM] | IC50 ([3]; bound given in nM) [µM] |
| --- | --- | --- | --- | --- |
| C[C@H](Nc1ncnc(N)c1C#Cc1ccc(F)cn1)c1nc2c(F)ccc(Cl)c2c(=O)n1-c1ccccc1 [Compound 6a, (S)-2-(1-(6-amino-5-((5-fluoropyridin-2-yl)ethynyl)pyrimidin-4-ylamino)ethyl)-5-chloro-8-fluoro-3-phenylquinazolin-4(3H)-one] | > 1 | < 100 |  |  |
| COc1cc(F)cc(C#Cc2c(N)ncnc2N[C@@H](C)c2nc3cccc(Cl)c3c(=O)n2-c2ccccc2)c1 [Compound 47a, (S)-2-(1-(6-amino-5-((3-fluoro-5-methoxyphenyl)ethynyl)pyrimidin-4-ylamino)ethyl)-5-chloro-3-phenylquinazolin-4(3H)-one] | > 1 | < 100 |  |  |
| C[C@H](Nc1ncnc(N)c1C#Cc1ccccc1)c1nc2cccc(F)c2c(=O)n1-c1cccnc1 [Compound 116a, (S)-2-(1-((6-amino-5-(phenylethynyl)pyrimidin-4-yl)amino)ethyl)-5-fluoro-3-(pyridin-3-yl)quinazolin-4(3H)-one] |  | < 100 | > 1 |  |
| Cc1ccc(F)c2nc([C@H](C)Nc3ncnc(N)c3C#Cc3ccc(F)cn3)n(-c3ccccc3)c(=O)c12 [Compound 62a, (S)-2-(1-((6-amino-5-((5-fluoropyridin-2-yl)ethynyl)pyrimidin-4-yl)amino)ethyl)-8-fluoro-5-methyl-3-phenylquinazolin-4(3H)-one] | > 1 | < 100 |  |  |
| Cc1cccc2nc([C@H](C)Nc3ncnc(N)c3C#Cc3ccc(F)cn3)n(-c3ccccc3)c(=O)c12 [Compound 54a, (S)-2-(1-((6-amino-5-((5-fluoropyridin-2-yl)ethynyl)pyrimidin-4-yl)amino)ethyl)-5-methyl-3-phenylquinazolin-4(3H)-one] | > 1 | < 100 |  |  |
| C[C@H](Nc1ncnc(N)c1C#Cc1cnccn1)c1nc2cccc(Cl)c2c(=O)n1-c1cccc(Cl)c1 [Compound 89a, (S)-2-(1-((6-amino-5-(pyrazin-2-ylethynyl)pyrimidin-4-yl)amino)ethyl)-5-chloro-3-(3-chlorophenyl)quinazolin-4(3H)-one] | > 1 | < 100 |  |  |
| C[C@H](Nc1ncnc(N)c1C#Cc1ncccn1)c1nc2cccc(Cl)c2c(=O)n1-c1ccccc1 [Compound 102a, (S)-2-(1-((6-amino-5-(pyrimidin-2-ylethynyl)pyrimidin-4-yl)amino)ethyl)-5-chloro-3-phenylquinazolin-4(3H)-one] | > 1 | < 100 |  |  |
| C[C@H](Nc1ncnc(N)c1C#Cc1ccccn1)c1nc2cccc(Cl)c2c(=O)n1-c1cccc(S(N)(=O)=O)c1 [Compound 40a, (S)-3-(2-(1-(6-amino-5-(pyridin-2-ylethynyl)pyrimidin-4-ylamino)ethyl)-5-chloro-4-oxoquinazolin-3(4H)-yl)benzenesulfonamide] |  | < 100 |  |  |
| C[C@H](Nc1nc(N)nc(N)c1C#Cc1ccccc1)c1nc2cccc(Cl)c2c(=O)n1-c1ccccc1 [Compound 25a, 5-chloro-2-(1-((2,6-diamino-5-(phenylethynyl)pyrimidin-4-yl)amino)ethyl)-3-phenylquinazolin-4(3H)-one] |  | < 100 |  | < 0.1 |
| C[C@H](Nc1ncnc(N)c1C#Cc1cccnc1)c1nc2cccc(Cl)c2c(=O)n1-c1ccccc1 [Compound 44a, (S)-2-(1-(6-amino-5-(pyridin-3-ylethynyl)pyrimidin-4-ylamino)ethyl)-5-chloro-3-phenylquinazolin-4(3H)-one] |  | < 100 |  | < 0.1 |
| C[C@H](Nc1ncnc(N)c1C#Cc1cnccn1)c1nc2cccc(C(F)F)c2c(=O)n1-c1ccccc1 [Compound 76a, (S)-2-(1-((6-amino-5-(pyrazin-2-ylethynyl)pyrimidin-4-yl)amino)ethyl)-5-(difluoromethyl)-3-phenylquinazolin-4(3H)-one] | > 1 | < 100 |  |  |
| C[C@H](Nc1ncnc(N)c1C#Cc1ccc(F)cn1)c1nc2cccc(Cl)c2c(=O)n1-c1ccccc1 [Compound 48a, (S)-2-(1-(6-amino-5-((5-fluoropyridin-2-yl)ethynyl)pyrimidin-4-ylamino)ethyl)-5-chloro-3-phenylquinazolin-4(3H)-one] | > 1 | < 100 |  |  |
| C[C@H](Nc1ncnc(N)c1C#Cc1ccc(N)cn1)c1nc2cccc(Cl)c2c(=O)n1-c1cc(F)cc(F)c1 [Compound 34a, (S)-2-(1-(6-amino-5-((5-aminopyridin-2-yl)ethynyl)pyrimidin-4-ylamino)ethyl)-5-chloro-3-(3,5-difluorophenyl)quinazolin-4(3H)-one] | > 1 | < 100 |  |  |
| C[C@H](Nc1ncnc(N)c1C#Cc1ccccc1)c1nc2cccc(F)c2c(=O)n1-c1cccc(F)c1 [Compound 111a, (S)-2-(1-((6-amino-5-(phenylethynyl)pyrimidin-4-yl)amino)ethyl)-5-fluoro-3-(3-fluorophenyl)quinazolin-4(3H)-one] | > 1 | < 100 |  |  |
| Cc1cccc2nc([C@H](C)Nc3ncnc(N)c3C#Cc3ncccn3)n(-c3ccccc3)c(=O)c12 [Compound 104a, (S)-2-(1-((6-amino-5-(pyrimidin-2-ylethynyl)pyrimidin-4-yl)amino)ethyl)-5-methyl-3-phenylquinazolin-4(3H)-one] | > 1 | < 100 |  |  |
| COc1ccc(C#Cc2c(N)ncnc2N[C@@H](C)c2nc3c(Cl)ccc(Cl)c3c(=O)n2-c2ccccc2)nc1 [Compound 10a, (S)-2-(1-(6-amino-5-((5-methoxypyridin-2-yl)ethynyl)pyrimidin-4-ylamino)ethyl)-5,8-dichloro-3-phenylquinazolin-4(3H)-one] | > 1 | < 100 |  |  |
| C[C@H](Nc1ncnc(N)c1C#Cc1cccc(C(F)(F)F)n1)c1nc2cccc(Cl)c2c(=O)n1-c1ccccc1 [Compound 151a, (S)-2-(1-((6-amino-5-((6-(trifluoromethyl)pyridin-2-yl)ethynyl)pyrimidin-4-yl)amino)ethyl)-5-chloro-3-phenylquinazolin-4(3H)-one] | > 1 | < 100 |  |  |
| CCNS(=O)(=O)c1cccc(-n2c([C@H](C)Nc3ncnc(N)c3C#Cc3ccccn3)nc3cccc(Cl)c3c2=O)c1 [Compound 39a, (S)-3-(2-(1-(6-amino-5-(pyridin-2-ylethynyl)pyrimidin-4-ylamino)ethyl)-5-chloro-4-oxoquinazolin-3(4H)-yl)-N-ethylbenzenesulfonamide] |  | < 100 |  |  |
| CC(=O)c1cccc(C#Cc2c(N)ncnc2N[C@@H](C)c2nc3cccc(Cl)c3c(=O)n2-c2ccccc2)n1 [Compound 153a, (S)-2-(1-((5-((6-acetylpyridin-2-yl)ethynyl)-6-aminopyrimidin-4-yl)amino)ethyl)-5-chloro-3-phenylquinazolin-4(3H)-one] | > 1 | < 100 |  |  |
| C[C@H](Nc1ncnc(N)c1C#Cc1ccccc1)c1nc2cccc(C#N)c2c(=O)n1-c1ccccc1 [Compound 114a, (S)-2-(1-((6-amino-5-(phenylethynyl)pyrimidin-4-yl)amino)ethyl)-4-oxo-3-phenyl-3,4-dihydroquinazoline-5-carbonitrile] | > 1 | < 100 |  |  |
| COc1ccc(C#Cc2c(N)ncnc2N[C@@H](C)c2nc3c(F)cccc3c(=O)n2-c2ccccc2)nc1 [Compound 12a, (S)-2-(1-(6-amino-5-((5-methoxypyridin-2-yl)ethynyl)pyrimidin-4-ylamino)ethyl)-8-fluoro-3-phenylquinazolin-4(3H)-one] | > 1 | < 100 |  |  |
| C[C@H](Nc1ncnc(N)c1C#Cc1cc(C(F)(F)F)ccn1)c1nc2cccc(Cl)c2c(=O)n1-c1ccccc1 [Compound 148a, (S)-2-(1-((6-amino-5-((4-(trifluoromethyl)pyridin-2-yl)ethynyl)pyrimidin-4-yl)amino)ethyl)-5-chloro-3-phenylquinazolin-4(3H)-one] | > 1 | < 100 |  |  |
| Nc1ncnc(N2CCC[C@H]2c2nc3cccc(Cl)c3c(=O)n2-c2ccccc2)c1C#Cc1ccccn1 [Compound 37a, (S)-2-(1-(6-amino-5-(pyridin-2-ylethynyl)pyrimidin-4-yl)pyrrolidin-2-yl)-5-chloro-3-phenylquinazolin-4(3H)-one] | > 1 | < 100 |  |  |
| C[C@H](Nc1ncnc(N)c1C#Cc1cnccn1)c1nc2cccc(Cl)c2c(=O)n1-c1cccc(CNS(C)(=O)=O)c1 [Compound 123a, (S)—N-(3-(2-(1-((6-amino-5-(pyrazin-2-ylethynyl)pyrimidin-4-yl)amino)ethyl)-5-chloro-4-oxoquinazolin-3(4H)-yl)benzyl)methanesulfonamide] | > 1 | < 100 |  |  |
| C[C@H](Nc1ncnc(N)c1C#Cc1cnc(N)cc1C(F)(F)F)c1nc2cccc(Cl)c2c(=O)n1-c1cc(F)cc(F)c1 [Compound 17a, (S)-2-(1-(6-amino-5-((6-amino-4-(trifluoromethyl)pyridin-3-yl)ethynyl)pyrimidin-4-ylamino)ethyl)-5-chloro-3-(3,5-difluorophenyl)quinazolin-4(3H)-one] |  | < 100 |  | < 0.1 |
| C[C@H](Nc1ncnc(N)c1C#Cc1cnc(N)nc1)c1nc2cccc(Cl)c2c(=O)n1-c1cc(F)cc(F)c1 [Compound 32a, (S)-2-(1-(6-amino-5-((2-aminopyrimidin-5-yl)ethynyl)pyrimidin-4-ylamino)ethyl)-5-chloro-3-(3,5-difluorophenyl)quinazolin-4(3H)-one] |  | < 100 |  |  |
